Results reported in patent publication US6835371B1 (priority 1997, dated 2004).
Read-outs that look alike come from different tables or passages of the source.

Legend:
[1] = biological target: T1, human norepinephrine transporter (hNET) (Homo sapiens, UniProt P23975); experiment: biochemical; assay type: binding
[2] = test system: male Swiss-Webster mice; experiment: animal or person; assay type: in vivo
[3] = biological target: T2, human dopamine transporter (hDAT) (Homo sapiens, UniProt Q01959); experiment: cell-based
[4] = test system: male Swiss-Webster mice; experiment: Cocaine interaction study (locomotor activity); assay type: in vivo; conditions: 0.1-10 mg/kg IP 20 min before 20 mg/kg cocaine IP
[5] = biological target: T2, human dopamine transporter (hDAT); experiment: biochemical; assay type: binding
[6] = biological target: T1, human norepinephrine transporter (hNET); experiment: cell-based

T2 sequence (Q01959 whole entry): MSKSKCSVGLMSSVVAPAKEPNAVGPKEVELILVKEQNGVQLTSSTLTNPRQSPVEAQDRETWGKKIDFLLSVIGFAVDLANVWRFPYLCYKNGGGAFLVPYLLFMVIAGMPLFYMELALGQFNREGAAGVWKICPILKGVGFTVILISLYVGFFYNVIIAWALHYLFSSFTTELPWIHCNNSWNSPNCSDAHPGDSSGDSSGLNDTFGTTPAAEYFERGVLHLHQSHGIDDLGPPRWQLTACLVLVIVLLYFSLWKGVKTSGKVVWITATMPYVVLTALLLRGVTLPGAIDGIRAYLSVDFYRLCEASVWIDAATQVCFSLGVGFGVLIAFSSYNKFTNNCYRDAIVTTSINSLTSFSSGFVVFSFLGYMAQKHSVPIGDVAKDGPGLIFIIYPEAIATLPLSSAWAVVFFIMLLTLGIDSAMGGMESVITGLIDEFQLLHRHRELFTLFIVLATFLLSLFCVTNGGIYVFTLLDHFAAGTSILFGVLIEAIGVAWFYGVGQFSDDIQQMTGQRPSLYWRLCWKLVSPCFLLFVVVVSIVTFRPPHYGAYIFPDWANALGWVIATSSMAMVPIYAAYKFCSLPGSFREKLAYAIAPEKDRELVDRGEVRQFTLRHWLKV
T1 sequence (P23975 whole entry): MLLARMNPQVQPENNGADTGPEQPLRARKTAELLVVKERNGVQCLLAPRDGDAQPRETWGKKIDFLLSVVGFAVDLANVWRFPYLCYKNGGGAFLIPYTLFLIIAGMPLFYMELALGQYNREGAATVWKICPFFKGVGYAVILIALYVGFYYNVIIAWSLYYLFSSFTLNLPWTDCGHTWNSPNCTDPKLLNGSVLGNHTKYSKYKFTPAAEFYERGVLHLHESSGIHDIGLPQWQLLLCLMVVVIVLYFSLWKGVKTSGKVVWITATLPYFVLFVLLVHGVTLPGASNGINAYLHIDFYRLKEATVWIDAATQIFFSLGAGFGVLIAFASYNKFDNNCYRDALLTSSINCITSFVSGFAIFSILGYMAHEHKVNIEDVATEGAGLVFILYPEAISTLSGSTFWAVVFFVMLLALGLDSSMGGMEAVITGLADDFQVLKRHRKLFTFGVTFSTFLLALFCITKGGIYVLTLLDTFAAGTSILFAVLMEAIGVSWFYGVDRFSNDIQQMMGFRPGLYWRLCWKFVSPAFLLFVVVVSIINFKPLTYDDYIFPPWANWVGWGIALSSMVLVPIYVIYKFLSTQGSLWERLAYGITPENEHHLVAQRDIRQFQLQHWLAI

Compound: Fc1ccc(C(OCCCCN2CCN(c3ccccc3F)CC2)c2ccc(F)cc2)cc1 [Compound 31526]
- Hill coefficient [1]: −0.91 ± 0.09
- Ki ([1]; [125I]RTI-55 binding Ki, NET): 417 nM
- ED50 ([2]; Mus musculus, ip, read-out: ED50 (dose producing ½ maximal stimulant activity)): 0.015 mg/kg
- Maximal effect/cocaine maximal effect ratio (ME/CME) ([2]; mouse, in vivo): 0.49
- Maximum effect, horizontal activity ([2]; mouse, in vivo): 2716.1 counts/10 min
- Dose at estimated maximum effect ([2]; mouse, in vivo, ip): 0.64 mg/kg
- Doses with significant differences against the vehicle group (p<0.05) ([2]; mouse, in vivo, ip): 1 mg/kg
- Discrimination Ratio DAT Binding/Reuptake [3]: 11.9
- Discrimination ratio uptake/binding (DA) [3]: 11.9
- IC50 [3]: 460 nM
- Ki [3]: 460 ± 140 nM
- Attenuation of cocaine-induced locomotor activity [4]: did not attenuate locomotor activity induced by 20 mg/kg cocaine
- Binding discrimination ratio NET/DAT [5]: 10.8
- Binding discrimination ratio SERT/DAT [5]: 0.8
- Hill coefficient [5]: −0.86 ± 0.06
- Ki ([5]; [125I]RTI-55 binding Ki, DAT): 38.7 nM
- Ki [6]: 700 ± 240 nM
- IC50 ([6]; [3H]NE Uptake IC50): 700 nM
- IC50 ([6]; read-out: [3H]NE Uptake IC50): 700 nM
